This is an account of results in patent publication US20210300940A1 (Merck Patent GmbH, priority 2018, published 2021).

SMILES strings stand for the structures. Counter-ions that a name gives are not always drawn. Where only a bound is given, the exact number is not on record here.

One test concerns the target T1, TLR7 (Homo sapiens, UniProt Q9NYK1).
T1 construct: expressed in transfected cells; host or cells: HEK/293 cells carrying TLR7 and an NF-kB luciferase reporter
T1 sequence (Q9NYK1 27-1049): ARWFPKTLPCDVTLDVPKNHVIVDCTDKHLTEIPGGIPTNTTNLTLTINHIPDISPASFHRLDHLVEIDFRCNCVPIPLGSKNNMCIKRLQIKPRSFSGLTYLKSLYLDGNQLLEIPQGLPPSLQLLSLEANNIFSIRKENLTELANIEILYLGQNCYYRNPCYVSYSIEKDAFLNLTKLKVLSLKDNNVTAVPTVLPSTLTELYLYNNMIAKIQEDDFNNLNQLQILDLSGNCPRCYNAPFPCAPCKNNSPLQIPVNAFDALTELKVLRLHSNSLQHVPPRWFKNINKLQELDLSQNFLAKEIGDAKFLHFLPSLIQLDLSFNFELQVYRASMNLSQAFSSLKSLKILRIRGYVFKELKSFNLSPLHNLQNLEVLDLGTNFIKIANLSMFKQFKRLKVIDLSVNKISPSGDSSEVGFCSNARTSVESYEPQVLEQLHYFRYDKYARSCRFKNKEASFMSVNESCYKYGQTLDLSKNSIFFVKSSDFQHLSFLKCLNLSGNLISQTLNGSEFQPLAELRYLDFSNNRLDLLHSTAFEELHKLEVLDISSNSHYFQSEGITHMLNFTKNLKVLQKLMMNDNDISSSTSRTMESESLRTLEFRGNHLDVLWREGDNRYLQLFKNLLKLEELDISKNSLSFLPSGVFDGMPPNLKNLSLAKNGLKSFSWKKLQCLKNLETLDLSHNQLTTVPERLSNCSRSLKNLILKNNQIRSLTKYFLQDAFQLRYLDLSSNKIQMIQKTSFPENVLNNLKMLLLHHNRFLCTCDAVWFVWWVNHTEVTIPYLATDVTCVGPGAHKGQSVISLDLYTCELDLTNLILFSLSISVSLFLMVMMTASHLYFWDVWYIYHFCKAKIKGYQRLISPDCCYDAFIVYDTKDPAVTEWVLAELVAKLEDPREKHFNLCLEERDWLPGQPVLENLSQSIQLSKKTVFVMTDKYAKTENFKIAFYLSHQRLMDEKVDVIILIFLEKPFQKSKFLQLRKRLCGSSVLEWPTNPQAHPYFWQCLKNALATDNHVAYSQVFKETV
In words: HEK/293 TLR7 Cell Assay. Particulars: TLR7/NFKb HEK cells, R848 agonist 10 uM final concentration, Steady-Glo readout; read-out: TLR7 potency. Type of test: cell-based. An outline of the steps: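 Compounds added to HEK cells expressing TLR7 with an NFκB reporter 30 min ahead of 10 uM R848 challenge; luciferase signal (Steady-Glo) measured after 5 h, cells having been seeded 24 h earlier at 5000 per well.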

For a further test, the target named is T2, TLR8 (Homo sapiens, UniProt Q9NR97).
T2 construct: expressed in transfected cells; host or cells: HEK/293 reporter cells (NF-kB luciferase)
T2 sequence (Q9NR97 27-1041): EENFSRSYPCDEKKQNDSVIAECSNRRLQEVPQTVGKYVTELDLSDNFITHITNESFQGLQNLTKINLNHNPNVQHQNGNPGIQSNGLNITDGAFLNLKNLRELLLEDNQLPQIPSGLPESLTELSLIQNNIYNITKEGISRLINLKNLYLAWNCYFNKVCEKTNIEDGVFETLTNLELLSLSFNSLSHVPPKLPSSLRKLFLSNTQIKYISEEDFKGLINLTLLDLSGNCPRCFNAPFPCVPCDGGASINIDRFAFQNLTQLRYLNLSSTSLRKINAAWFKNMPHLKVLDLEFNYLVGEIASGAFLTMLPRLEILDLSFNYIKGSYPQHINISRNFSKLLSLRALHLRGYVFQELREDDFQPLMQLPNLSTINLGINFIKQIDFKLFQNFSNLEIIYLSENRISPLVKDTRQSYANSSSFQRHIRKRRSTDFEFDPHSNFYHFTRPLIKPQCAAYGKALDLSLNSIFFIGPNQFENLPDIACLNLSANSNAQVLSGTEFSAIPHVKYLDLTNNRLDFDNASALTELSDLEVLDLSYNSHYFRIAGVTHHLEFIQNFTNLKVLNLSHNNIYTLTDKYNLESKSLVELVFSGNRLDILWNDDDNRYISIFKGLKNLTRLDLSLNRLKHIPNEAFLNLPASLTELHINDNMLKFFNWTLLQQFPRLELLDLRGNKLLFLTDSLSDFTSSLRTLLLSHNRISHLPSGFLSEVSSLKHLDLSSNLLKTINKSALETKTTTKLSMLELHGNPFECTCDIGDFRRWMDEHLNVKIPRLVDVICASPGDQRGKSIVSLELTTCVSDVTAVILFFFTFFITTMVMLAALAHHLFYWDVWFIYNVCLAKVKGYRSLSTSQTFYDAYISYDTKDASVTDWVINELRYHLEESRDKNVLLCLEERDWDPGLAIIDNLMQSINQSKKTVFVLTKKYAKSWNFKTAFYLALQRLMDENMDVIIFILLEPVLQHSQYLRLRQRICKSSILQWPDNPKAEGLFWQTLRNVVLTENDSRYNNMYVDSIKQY
In words: HEK/293 TLR8 Cell Assay. Type of test: cell-based. To be noted: HEK cells, R848 agonist 30 uM final concentration, Steady-Glo readout; read-out: TLR8 potency.

On to `C[C@@H]1CN(c2ccc(C#N)c3nccnc23)C[C@H](C(=O)NC[C@@H](O)CO)O1` [Example 233, (2R,6R)-4-(8-Cyano-quinoxalin-5-yl)-6-methyl-morpholine-2-carboxylic acid ((R)-2,3-dihydroxy-propyl)-amide], for which the IC50 at TLR7 and at TLR8 was less than 0.075 µM in each case.

With `N#Cc1ccc(N2C[C@H](N)C[C@H](C(F)(F)F)C2)c2ccc(=O)[nH]c12` [Example 388, 5-((3R,5S)-3-Amino-5-trifluoromethyl-piperidin-1-yl)-2-oxo-1,2-dihydro-quinoline-8-carbonitrile], the IC50 on TLR7 and on TLR8 was greater than 0.15 µM each time.

Consider `C[C@H]1C[C@@H](NC(=O)CC2(F)CCN(C)CC2)CN(c2ccc(C#N)c3nccnc23)C1` [Example 192, N-[(3R,5S)-1-(8-Cyano-quinoxalin-5-yl)-5-methyl-piperidin-3-yl]-2-(4-fluoro-1-methyl-piperidin-4-yl)-acetamide], for which the IC50 on TLR7 and at TLR8 was less than 0.075 µM each time.

As to `C[C@H]1C[C@@H](NC(=O)CC2(O)CCN(C)CC2)CN(c2ccc(C(F)(F)F)c3ncccc23)C1` [Example 84, 2-(4-hydroxy-1-methylpiperidin-4-yl)-N-[(3R,5S)-5-methyl-1-[8-(trifluoromethyl)quinolin-5-yl]piperidin-3-yl]acetamide], the IC50 on TLR7 and at TLR8 was less than 0.075 µM in each case.

Turning to `C[C@H]1C[C@@H](N)CN(c2cnc(C#N)c3nccnc23)C1` [Example 187, 8-((3R,5S)-3-Amino-5-methyl-piperidin-1-yl)-pyrido[3,4-b]pyrazine-5-carbonitrile hydrochloride], the IC50 at TLR7 and at TLR8 was less than 0.075 µM in each case.

Turning to `Cc1ncc(N2C[C@H](NC(=O)CN3CCN(C)CC3)C[C@H](C(F)(F)F)C2)c2cccnc12` [Example 70, N-[(3R,5S)-1-(8-methyl-1,7-naphthyridin-5-yl)-5-(trifluoromethyl)piperidin-3-yl]-2-(4-methylpiperazin-1-yl)acetamide], the IC50 on TLR7 and on TLR8 was 0.075 to 0.15 µM in each case.

For the compound `C[C@H]1C[C@@H](NCCC(=O)NO)CN(c2ccc(C(F)(F)F)c3ncccc23)C1` [Example 36, N-Hydroxy-3-[(3R,5S)-5-methyl-1-(8-trifluoromethyl-quinolin-5-yl)-piperidin-3-ylamino]-propionamide], the IC50 at TLR7 and on TLR8 was less than 0.075 µM in each case.

`Cc1noc([C@H]2CN(c3ccc(C#N)c4nccnc34)C[C@@H](C)O2)n1` (racemic) [Example 213, 8-[(2R,6R)-2-Methyl-6-(3-methyl-[1,2,4]oxadiazol-5-yl)-morpholin-4-yl]-quinoxaline-5-carbonitrile]: the values for the IC50 on TLR7 and on TLR8 were greater than 0.15 µM and less than 0.075 µM, respectively.

For the compound `C[C@@H]1CN(c2ccc(C#N)c3nccnc23)C[C@H](C(=O)NCCN2CCS(=O)(=O)CC2)O1` [Example 239, (2R,6R)-4-(8-Cyano-quinoxalin-5-yl)-6-methyl-morpholine-2-carboxylic acid [2-(1,1-dioxo-1lambda6-thiomorpholin-4-yl)-ethyl]-amide], the results for the IC50 on TLR7 and on TLR8 were less than 0.075 µM and greater than 0.15 µM, respectively.

For the compound `CC(=O)NCCNC[C@H]1CN(c2cnc(C#N)c3ncccc23)C[C@@H](C)O1` [Example 380, N-(2-{[(2S,6R)-4-(8-Cyano-[1,7]naphthyridin-5-yl)-6-methyl-morpholin-2-ylmethyl]-amino}-ethyl)-acetamide], the IC50 at TLR7 and on TLR8 was greater than 0.15 µM each time.

Take `C[C@@H]1CN(c2cnc(C#N)c3ncccc23)C[C@H](CN2CCN(S(N)(=O)=O)CC2)O1` [Example 382, 4-{[(2S,6R)-4-(8-cyano-1,7-naphthyridin-5-yl)-6-methylmorpholin-2-yl]methyl}piperazine-1-sulfonamide]: the IC50 at TLR7 and on TLR8 was greater than 0.15 µM each time.

For `C[C@@H]1CN(c2ccc(C#N)c3nccnc23)C[C@H](C(=O)NCC(C)(C)O)O1` [Example 246, (2R,6R)-4-(8-Cyano-quinoxalin-5-yl)-6-methyl-morpholine-2-carboxylic acid (2-hydroxy-2-methyl-propyl)-amide], the IC50 on TLR7 and on TLR8 was less than 0.075 µM throughout.

With `Cc1c(F)cc(N2C[C@H](CN3CCC(N4CCCC4)CC3)O[C@H](C)C2)c2cccnc12` [Example 223, 7-Fluoro-8-methyl-5-[(2R,6S)-2-methyl-6-(4-pyrrolidin-1-yl-piperidin-1-ylmethyl)-morpholin-4-yl]-quinoline], the IC50 on TLR7 and at TLR8 was less than 0.075 µM throughout.

In the case of `C[C@@H]1CN(c2cnc(C#N)c3ncccc23)C[C@H](CN2CCNCC2)O1` [Example 366, 5-((2R,6S)-2-Methyl-6-piperazin-1-ylmethyl-morpholin-4-yl)-[1,7]naphthyridine-8-carbonitrile], the IC50 on TLR7 and on TLR8 was less than 0.075 µM in each case.

In the case of `CC(C(=O)N[C@@H]1C[C@H](C(F)(F)F)CN(c2ccc(C#N)c3ncccc23)C1)N1CCN(C)CC1` (single isomer, unassigned) [Example 100], the IC50 is 0.075 to 0.15 µM on TLR7 and less than 0.075 µM at TLR8.

For `Cc1ncc(N2C[C@H](NC(=O)CC3CCNCC3F)C[C@H](C(F)(F)F)C2)c2cccnc12` (stereo partly drawn) [Example 136, 2-(3-Fluoro-piperidin-4-yl)-N-[(3R,5S)-1-(8-methyl-[1,7]naphthyridin-5-yl)-5-trifluoromethyl-piperidin-3-yl]-acetamide], the IC50 at TLR7 is 0.075 to 0.15 µM; at TLR8, less than 0.075 µM.

`C[C@H]1C[C@@H](NC(=O)CC2(F)CCNCC2)CN(c2ccc(C#N)c3nccnc23)C1` [Example 114, N-[(3R,5S)-1-(8-cyanoquinoxalin-5-yl)-5-methylpiperidin-3-yl]-2-(4-fluoropiperidin-4-yl)acetamide]: the IC50 on TLR7 and at TLR8 was less than 0.075 µM each time.

For the compound `C[C@H]1C[C@@H](NC(=O)N[C@@H]2CCCNC2)CN(c2ccc(C(F)(F)F)c3ncccc23)C1` [Example 146, 3-[(3R,5S)-5-methyl-1-[8-(trifluoromethyl)quinolin-5-yl]piperidin-3-yl]-1-[(3R)-piperidin-3-yl]urea], the IC50 was greater than 0.15 µM on TLR7 and less than 0.075 µM at TLR8.

Regarding `C[C@@H]1CN(c2ccc(C#N)c3nccnc23)C[C@H](CN2CC(C)(O)C2)O1` [Example 218, 8-[(2S,6R)-2-(3-Hydroxy-3-methyl-azetidin-1-ylmethyl)-6-methyl-morpholin-4-yl]-quinoxaline-5-carbonitrile], the IC50 at TLR7 is less than 0.075 µM; at TLR8, greater than 0.15 µM.
